This series relates to CCRIS mutagenicity, Ames/micronucleus/aberration tests. Description: CCRIS mutagenicity studies. The conditions noted are these: Test System: AMES SALMONELLA TYPHIMURIUM
Where [1] appears, read: Strain/Indicator: TA98, Metabolic Activation: NONE, Method: STANDARD PLATE.
The mark [2] stands for this setting: Strain/Indicator: TA100, Metabolic Activation: NONE, Method: STANDARD PLATE.
The mark [3] stands for this setting: Strain/Indicator: TA102, Metabolic Activation: NONE, Method: STANDARD PLATE.
Where [4] appears, read: Strain/Indicator: TA100, Metabolic Activation: NONE, Method: PREINCUBATION
The mark [5] stands for this setting: Strain/Indicator: TA98, Metabolic Activation: NONE, Method: PREINCUBATION
The mark [6] stands for this setting: Strain/Indicator: TA97, Metabolic Activation: NONE, Method: PREINCUBATION

For eight compounds, mutagenic call results are on record in PubChem BioAssay AID1259407 (Chemical Carcinogenesis Research Information System (CCRIS), 2018).

Calls of active or inactive are those of the source. How the calls were made is not given here.

For `CC(C)CN(C(=O)CCCl)c1snc2ccccc12`, the mutagenic call runs as follows: under setting [1], “inactive; negative”; (Strain/Indicator: TA98, Metabolic Activation: S-9, Method: STANDARD PLATE) “inactive; negative”; under setting [2], “inactive; negative”; (Strain/Indicator: TA100, Metabolic Activation: S-9, Method: STANDARD PLATE) “inactive; negative”; (Strain/Indicator: TA1535, Metabolic Activation: NONE, Method: STANDARD PLATE) “inactive; negative”; (Strain/Indicator: TA1535, Metabolic Activation: S-9, Method: STANDARD PLATE) “inactive; negative”. Also, the mutagenic call runs as follows: (Strain/Indicator: TA1537, Metabolic Activation: NONE, Method: STANDARD PLATE) “inactive; negative”; (Strain/Indicator: TA1537, Metabolic Activation: S-9, Method: STANDARD PLATE) “inactive; negative”.
On to `CCOC(=O)[C@@H](N)CS`, for which, under setting [3], the mutagenic call is “active; positive”.
In the case of `CC1(c2ccc(Cl)cc2)CO1` (stereo not drawn), under setting [4], the mutagenic call is “active; positive”.
Take `COC1=CC(=O)c2c(nc(C)c3c2[nH]c2ccncc23)C1=O`: the mutagenic call (Strain/Indicator: TA97A, Metabolic Activation: NONE, Method: STANDARD PLATE) was “active; positive”; the mutagenic call (Strain/Indicator: TA97A, Metabolic Activation: RAT LIVER S-9, AROCLOR 1254, Method: STANDARD PLATE) was “inactive; negative”; the mutagenic call under setting [1] was “active; positive”; the mutagenic call (Strain/Indicator: TA98, Metabolic Activation: RAT LIVER S-9, AROCLOR 1254, Method: STANDARD PLATE) is “active; positive”; the mutagenic call under setting [2] was “active; positive”; the mutagenic call (Strain/Indicator: TA100, Metabolic Activation: RAT LIVER S-9, AROCLOR 1254, Method: STANDARD PLATE) was “active; positive”. Further, the mutagenic call is “active; positive” under setting [3] and “active; positive” (Strain/Indicator: TA102, Metabolic Activation: RAT LIVER S-9, AROCLOR 1254, Method: STANDARD PLATE).
With `COC(=O)c1oc(NO)c(-c2ccccc2)c1-c1ccccc1`, the mutagenic call runs as follows: under setting [5], “inactive; negative”; (Strain/Indicator: TA98, Metabolic Activation: RAT, LIVER, S-9, AROCLOR, Method: PREINCUBATION) “inactive; negative”; under setting [4], “inactive; negative”; (Strain/Indicator: TA100, Metabolic Activation: RAT, LIVER, S-9, AROCLOR, Method: PREINCUBATION) “inactive; negative”.
With `Cc1cnc2c(C)cc3c(nc(N)n3C)c2n1`, the mutagenic call (Strain/Indicator: TA98, Metabolic Activation: RAT, LIVER, S-9, AROCLOR 1254, Method: STANDARD PLATE) is “active; positive”.
Consider `COc1ccc(N=[N+]([O-])c2ccc(OC)cc2)cc1`, for which the mutagenic call runs as follows: (Strain/Indicator: TA97, Metabolic Activation: HAMSTER, LIVER, S-9, AROCLOR 1254 (5%), Method: PREINCUBATION) “inactive; negative”; (Strain/Indicator: TA97, Metabolic Activation: HAMSTER, LIVER, S-9, AROCLOR 1254 (10 OR 30%), Method: PREINCUBATION) “active; positive”; under setting [6], “inactive; negative”; (Strain/Indicator: TA97, Metabolic Activation: RAT, LIVER, S-9, AROCLOR 1254 (5 OR 10%), Method: PREINCUBATION) “active; positive”; (Strain/Indicator: TA97, Metabolic Activation: RAT, LIVER, S-9, AROCLOR 1254 (30%), Method: PREINCUBATION) “inactive; negative”; (Strain/Indicator: TA98, Metabolic Activation: HAMSTER, LIVER, S-9, AROCLOR 1254 (30%), Method: PREINCUBATION) “inactive; negative”. The mutagenic call under setting [5] was “inactive; negative”; the mutagenic call (Strain/Indicator: TA98, Metabolic Activation: RAT, LIVER, S-9, AROCLOR 1254 (30%), Method: PREINCUBATION) is “inactive; negative”; the mutagenic call (Strain/Indicator: TA100, Metabolic Activation: HAMSTER, LIVER, S-9, AROCLOR 1254 (30%), Method: PREINCUBATION) was “inactive; negative”; the mutagenic call under setting [4] was “inactive; negative”; the mutagenic call (Strain/Indicator: TA100, Metabolic Activation: RAT, LIVER, S-9, AROCLOR 1254 (30%), Method: PREINCUBATION) was “inactive; negative”; the mutagenic call (Strain/Indicator: TA1535, Metabolic Activation: HAMSTER, LIVER, S-9, AROCLOR 1254 (30%), Method: PREINCUBATION) was “inactive; negative”. In addition, the mutagenic call by setting is: (Strain/Indicator: TA1535, Metabolic Activation: NONE, Method: PREINCUBATION) “inactive; negative”; (Strain/Indicator: TA1535, Metabolic Activation: RAT, LIVER, S-9, AROCLOR 1254 (30%), Method: PREINCUBATION) “inactive; negative”; (Strain/Indicator: TA1537, Metabolic Activation: HAMSTER, LIVER, S-9, AROCLOR 1254 (5 OR 10%), Method: PREINCUBATION) “inactive; negative”; (Strain/Indicator: TA1537, Metabolic Activation: HAMSTER, LIVER, S-9, AROCLOR 1254 (30%), Method: PREINCUBATION) “active; positive”; (Strain/Indicator: TA1537, Metabolic Activation: NONE, Method: PREINCUBATION) “inactive; negative”.
With `O=c1c2[nH]c3ccccc3c2nnn1/N=C/c1ccc(O)cc1`, the mutagenic call under setting [6] is “active; positive”; the mutagenic call (Strain/Indicator: TA97, Metabolic Activation: RAT, LIVER, S-9, AROCLOR 1254 (10%), Method: PREINCUBATION) is “active; positive”; the mutagenic call under setting [5] was “active; positive”; the mutagenic call (Strain/Indicator: TA98, Metabolic Activation: RAT, LIVER, S-9, AROCLOR 1254 (10%), Method: PREINCUBATION) is “active; positive”; the mutagenic call under setting [4] is “active; positive”; the mutagenic call (Strain/Indicator: TA100, Metabolic Activation: RAT, LIVER, S-9, AROCLOR 1254 (10%), Method: PREINCUBATION) is “active; positive”. Besides, the mutagenic call was “active; positive” (Strain/Indicator: TA102, Metabolic Activation: NONE, Method: PREINCUBATION) and “active; positive” (Strain/Indicator: TA102, Metabolic Activation: RAT, LIVER, S-9, AROCLOR 1254 (10%), Method: PREINCUBATION).
